{
  "source": "patent US20250000932A1",
  "about": "“DIAGNOSIS AND TREATMENT OF VA[…]” (University Of Maryland, Baltimore, priority 2023, published 2025)",
  "system": "patients with catecholamine-resistant vasodilatory shock",
  "assay": "ATHOS-3: safety (adverse events, serious adverse events)",
  "format": "in vivo, human",
  "settings": "patients with elevated renin concentrations at baseline",
  "protocol": "The use of Angiotensin II for the Treatment of High-Output Shock 3 (ATHOS-3) study has been described by Khanna et al. and Chawla et al. In brief, adults with vasodilatory shock despite volume resuscitation with 2:25 mL/kg and high-dose vasopressors were randomly assigned 1:1 to receive synthetic human angiotensin II (La Jolla Pharmaceutical Company™) or saline placebo plus standard vasopressors. Randomization was stratified according to MAP at screening and Acute Physiology and Chronic Health Evaluation II (APACHE II) score.\nThe study drug infusion started at 20 ng/kg/min and was adjusted during the first 3 hours to increase the MAP to 2:75 mm Hg while keeping other vasopressors constant. Thereafter, the study drug and other vasopressors were adjusted at the discretion of the treating ICU team to maintain a MAP between 65 and 75 mm Hg. At 48 hours, the infusion was discontinued according to a protocol-specified tapering process. However, continuation was allowed for up to 7 days at the discretion of the ICU team.\nSafety was evaluated by assessment of treatment-emergent adverse events, serious adverse events, and adverse event-related drug discontinuations.",
  "data": [
    {"smiles": "CC[C@H](C)[C@H](NC(=O)[C@H](Cc1ccc(O)cc1)NC(=O)[C@@H](NC(=O)[C@H](CCCNC(=N)N)NC(=O)[C@@H](N)CC(=O)O)C(C)C)C(=O)N[C@@H](Cc1cnc[nH]1)C(=O)N1CCC[C@H]1C(=O)N[C@@H](Cc1ccccc1)C(=O)O", "note": "[Angiotensin II, angiotensin II]", "values": [
      {"measurement": "adverse events or serious adverse events vs placebo", "value": "no significant difference"}
    ]}
  ]
}
